# Data: patent US11633421B2, “Use of NAD precursors for improving maternal health and/or offspring health” (UNIVERSITY OF IOWA RESEARCH FOUNDATION, priority 2016, dated 2023)
# Columns and labels:
# Assay type in all cases: in vivo, mice
# [1] = Offspring body composition, brain mass and activity at weaning (Example 1)
# Method: (§1) Female C57BL/6N mice were raised in 12 hour light:dark cycles on Teklad 2920X chow (NC). For 12 weeks prior to mating with a single C57BL/6N male, females were on either NC (n=4) or NC+NR (n=4). Females were maintained on the same diet through gestation and weaning, which was at 21 days after birth. […] The improved body composition of mice from NR-supplemented mothers was entirely unexpected.
# [2] = Offspring fasting glucose (Example 1)
# Method: as §1, with “mild hypoglycemia” for “improved body composition”, “on standard chow was not expected and the improvement in glycemic control by virtue of supplementing” for “from NR-supplemented”, “was” for “was entirely”
# [3] = system: NAD biosynthetic genes in the mammary glands; experiment: Mammary NAD biosynthetic gene expression and NAD metabolites
# Text: FIGS. 12A-D. Lactation and NR boost the mammary NAD program. FIG. 12A. NR promotes expression of NAD biosynthetic genes in the mammary glands. FIG. 12B. […] FIG. 12C. Lactation boosts NMN in mammary. FIG. 12D. Lactation and NR boost mammary NR in an additive manner. […] As shown in FIGS. 12B-12C, maternal NAD and NMN are elevated in the mammary of lactating mammary with respect to nonlactating mammary tissue.
# [4] = system: lipid biosynthetic genes and lactose biosynthetic genes; experiment: Mammary lipid and lactose biosynthetic gene expression; conditions: NR in the diet
# Text: FIGS. 13A-D. NR boosts prolactin circulation and mammary biosynthetic pathways for protein, fat and carbohydrate. FIG. 13A. Prolactin levels in plasma from dam on NC or NR chow. FIG. 13B. mTOR pathway is activated in NR-supplemented mammary tissue. FIG. 13C. Genes involved in lipid biosynthesis are activated in NR-supplemented mammary tissue. FIG. 13D. Genes involved in lactose synthesis pathway are activated in NR-supplemented mammary tissue. […] In addition, the size of the mammary tissue itself is greater in NR-supplemented mothers than in non-supplemented mothers (FIG. 14A).
# [5] = Pup growth and weanling body composition (post-partum maternal NR)
# Method: FIG. 15. Maternal NR increases pup growth early in the neonatal period. Neonatal pups body weight from Day 0 to Day 14 (n=5 litter per group). FIGS. 16A-D. 21 day old pups of NR-supplemented mothers are bigger. Males and females were analyzed separately. The order of the bars from left to right are: males of normal chow (NC) mothers (white with light grey outline), followed by males of NR-supplemented mothers (filled light grey), followed by females of NC mothers (white with dark grey outline), followed by females of NR-supplemented mothers (filled dark grey). […] As shown in FIG. 16A-C, 21 day old weanlings of NR-supplemented mothers are larger in overall mass, fat mass and lean mass.
# [6] = Brain size and caudate putamen of offspring
# Text: FIGS. 24A-D. 69 days after their mother's intervention, the female offspring tend to have larger brains […] (FIG. 24A). Pups of NR-supplemented moms show advanced pruning of the caudate putamen at day 22 (FIGS. 24B-C); however, the caudate putamen in pups from NR-supplemented mothers grows to a normal size in adulthood (FIG. 24D). The order of the bars from left to right are: males of normal chow (NC) mothers (white with light grey outline), followed by males of NR-supplemented mothers (filled light grey), followed by females of NC mothers (white with dark grey outline), followed by females of NR-supplemented mothers (filled dark grey). At 91 days, the mice were sacrificed and examined with respect to their brains. In FIG. 24A, it was shown that female mice from NR-supplemented mothers have larger brains in adulthood. We hypothesized that the caudate putamen, which is the motor learning center of the brain, may have developed more rapidly in mice whose mothers had been NR-supplemented either due to the increased quality and/or quantity of milk they received and/or improved maternal care.
# [7] = 21 day old weanlings of NR-supplemented mothers
smiles,measurement,setting,value
"NC(=O)c1ccc[n+]([C@@H]2O[C@H](CO)[C@@H](O)[C@H]2O)c1 [NR, nicotinamide riboside]",physical activity of fasted neonates,[1]; NR in the diet of female mice,greater physical activity
same,body composition (fat mass) of mice raised by NR-supplemented mothers,[1]; at weaning,leaner
same,brain mass of mice raised by NR-supplemented mothers,[1]; at weaning,tend toward larger brains
same,"glucose after an overnight fast, mice raised by NR-supplemented mothers",[2],better at maintaining glucose
same,mammary NR,"[3]; lactating female mouse, above level in lactating female",large increase
same,mammary NAD+ levels,"[3]; lactating mammary gland, NR supplementation",tends to further increase
same,expression of NAD biosynthetic genes in lactating mammary,[3]; mother supplemented with NR,very high level of expression
same,mammary lactose biosynthetic genes,[4],strongly induced
same,mammary lipid biosynthetic genes,[4],strongly induced
same,brain weight of weanlings,[5]; 21 day old females,tend to have larger brain weight
same,fat mass of weanlings,[5]; [7],larger
same,lean mass of weanlings,[5]; [7],larger
same,overall mass of weanlings,[5]; [7],larger
same,neonatal size (pup body weight),[5]; particularly at day 7 and 9,boosts neonatal size
same,brain size in adulthood,"[6]; 91 days, female mice from NR-supplemented mothers",larger
same,caudate putamen in adults,[6]; adult offspring,not affected
same,caudate putamen pruning (area of PSD95 staining),[6]; female weanlings,clearly advanced pruning
same,caudate putamen size in weanlings,[6]; weanlings at 21 days,slightly smaller
